Test in all cases: Fluorescence Polarization Assay
Holding throughout (settings): pH 7.35
A general note: Fluorescence polarisation rises when a labelled molecule tumbles more slowly, as on binding a larger partner.

Experiment [1] has as its target T1, Tyrosine-protein kinase transforming protein Src [144-247,E177Q,S178L,E179A,T180R,T181V,C186A,K201L] (Rous sarcoma virus subgroup B (strain Schmidt-Ruppin), UniProt P63185, C186A/E177Q/E179A/K201L/S178L/T180R/T181V).
T1 construct: 144-247
As for the experimental part:
(§1) Three fluorescein-labeled peptide probes, FITC-sulfopeptide, FITC-phosphopeptide, and FITC-tyrosinepeptide (FITC, fluorescein isothiocyanate), were used. Individual peptide probes were dissolved in assay buffer containing potassium phosphate (20 mM, pH 7.35), NaCl (100 mM), DTT (2 mM), and bovine gamma globulin (0.1%). Aliquots of the peptide probe solution were distributed to 96-well fluorescence plate to reach a final concentration of 10 nM. After the addition of indicated amounts of SH2 domain protein, the assay solutions were mixed and incubated at RT in the dark for 25 min. Fluorescence polarization experimentswere performed on a Synergy H1 plate reader (BioTek Instruments, Inc.) equipped with standard filter cube (λEx = 485 nm, BP = 20 nm; λEm = 528 nm, BP = 20 nm). A standard sample layout in a 96-well plate was designed so that a single plate contains all the samples for one SH2 domain variant. Triplicate samples at each protein concentration were arrayed in the plat

In experiment [2] the target is T2, Tyrosine-protein kinase transforming protein Src [144-247,E177R,S178L,E179Q,T180R,T181V,C186A,K201L] (Rous sarcoma virus subgroup B (strain Schmidt-Ruppin), UniProt P63185, C186A/E177R/E179Q/K201L/S178L/T180R/T181V).
T2 construct: 144-247
T2 sequence (P63185 144-247 E176R/S177L/E178Q/T179R/T180V/C185A/K200L): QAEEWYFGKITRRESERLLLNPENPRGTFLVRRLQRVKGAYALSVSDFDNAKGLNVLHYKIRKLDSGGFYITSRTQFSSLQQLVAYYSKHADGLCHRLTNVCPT
As for the experimental part:
as §1

The target in experiment [3] is T3, Tyrosine-protein kinase transforming protein Src [144-247,T181V,C186A,K201L] (Rous sarcoma virus subgroup B (strain Schmidt-Ruppin), UniProt P63185, C186A/K201L/T181V).
T3 construct: 144-247
T3 sequence (P63185 144-247 T180V/C185A/K200L): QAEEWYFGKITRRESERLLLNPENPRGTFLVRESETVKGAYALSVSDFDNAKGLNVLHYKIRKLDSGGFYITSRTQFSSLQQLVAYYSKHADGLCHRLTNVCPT
As for the experimental part: as §1

In experiment [4] the target is T4, Tyrosine-protein kinase transforming protein Src [144-247] (Rous sarcoma virus subgroup B (strain Schmidt-Ruppin), UniProt P00524).
T4 construct: 144-247
T4 sequence (P00524 144-247): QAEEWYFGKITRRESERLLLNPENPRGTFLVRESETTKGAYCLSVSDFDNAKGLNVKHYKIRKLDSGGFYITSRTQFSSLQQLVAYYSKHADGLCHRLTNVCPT
As for the experimental part:
as §1

As a reminder, the Kd is the constant that tells how readily two partners part at equilibrium.

T1 sequence (P63185 144-247 E176Q/S177L/E178A/T179R/T180V/C185A/K200L): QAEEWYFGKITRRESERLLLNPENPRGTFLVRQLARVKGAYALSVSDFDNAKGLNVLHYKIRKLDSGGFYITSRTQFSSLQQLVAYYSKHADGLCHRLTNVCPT

Turning to `N[C@@H](Cc1ccc(OS(=O)(=O)O)cc1)C(=O)O` [Sulfotyrosine (sTyr)], the dissociation constant Kd in experiment [1] came out at 10.4 nM; in experiment [2] it was 5.6 nM; in experiment [3], 349 nM; in experiment [4] it was 9.62 µM.

For `N[C@@H](Cc1ccc(OP(=O)(O)O)cc1)C(=O)O` [Phosphotyrosine (pTyr)], the Kd in experiment [1] was 7.7 nM; in experiment [2], 2.5 nM; in experiment [3], 4.9 nM; in experiment [4] it was 0.061 µM.

Source of the values: BindingDB's records for doi:10.1021/acschembio.6b00555 (University of Nebraska-Lincoln, 2016).
